# According to patent US4022912A, “Use of 1-decarboxy-1-hydroxymethyl-PGE1 in therapeutic bronchodilation” (priority 1976, dated 1977):
# Like-named read-outs stand apart in the source and are kept apart here.
# Tests used:
# [1] = tested on: Guinea Pig Tracheal Tissue; assay: Relaxation of guinea pig tracheal tissue in vitro; assay type: cell-based; conditions: Table B, standard error in parentheses
# Experimental: Male guinea pigs weighing 200-500 g were killed by a blow on the head. A 20 mm length of trachea was dissected from each of the animals, transferred to a petri dish containing Krebs' solution aerated with 95% O2 and 5% CO2 at 37° C., and cut longitudinally opposite the tracheal muscle. The tissue was then cut transversely three quarters of the distance across; a second cut in the opposite direction again three quarters of the distance across the tissue was made, and the procedure was continued for the whole tissue. The ends of the trachea were pulled to form a zig-zag shaped strip. The tracheal strips used in the experiment were approximately 30 mm when extended under 0.25-0.5 g load in a tissue bath. Cotton thread was tied to one end of the tissues, and linen thread to the other. The tissues were attached via the linen thread to a glass hook in a 5 ml isolated tissue bath containing Krebs' solution at 37° C. aerated with a mixture of 95% O2 and 5% CO2. The opposite ends were attached via cotton thread to an isotonic transducer. The load on the transducer lever was small, usually 0.3 g, with a range of 0.25-0.5 g; and the magnification high, 80-fold using an appropriate twin-channel pen recorder. A minimum of thirty minutes was allowed before applying a drug to the tissues. Drugs were then applied (in volumes of 0.5 ml) at thirty minute intervals, being in contact with the tissue for five minutes followed by an overflow washout time of twenty seconds.
# [2] = tested on: Histamine-Induced Bronchoconstriction; assay: Inhibition of histamine-induced bronchoconstriction in the anesthetized guinea pig in vivo by intravenous administration; conditions: Cavia porcellus, iv, i.v. 15 seconds prior to histamine
# Experimental: (§1) Male albino guinea pigs (400-600 g; Dunkin-Hartley Strain) were anesthetized with pentobarbitone sodium (60 mg/kg intraperitoneally).
# (§2) Trachea, external jugular vein and carotid artery were cannulated for recording ventilation, intravenous administration of drugs, and blood pressure respectively. The animals were artificially respired throughout the experiment. Electrocardiograms were also recorded. Respiratory flow was charted on a twin-channel recorder fixed to an SE differential pressure transducer.
# (§3) Histamine was administered intravenously at 5 minute intervals. The test drug was administered intravenously 15 seconds prior to histamine in order to inhibit bronchoconstriction.
# [3] = tested on: tracheal smooth muscle; conditions: isolated from a guinea pig; cited from earlier work
# [4] = tested on: bronchodilation; conditions: inhalational administration to guinea pigs; cited from earlier work
# [5] = tested on: Convulsions Induced by Inhaled Histamine; assay: Delay of convulsions induced by inhaled histamine in conscious guinea pigs; assay type: in vivo, guinea pig
# Experimental: Conscious male albino guinea pigs (Dunkin-Hartley strain) weighing 200-300 g were placed (singly) in a 5-liter transparent chamber for 1 minute and subjected to an aerosol of vehicle or test drug in solution, plus histamine (1% w/v).
# The time from the beginning of the administration of the aerosol to the start of the first convulsion (when the guinea pig is immediately removed from the aerosol) is the pre-convulsion time. Twenty-four hours later the general procedure was repeated. Guinea pigs treated with the test drug on the first day were treated with vehicle on the second day and vice versa in a cross-over design. Maximum time allowed in the aerosol was 10 minutes. An ultrasonic humidifier was used to produce the aerosol.
# [6] = tested on: Histamine-Induced Bronchoconstriction; assay: Inhibition of intravenous histamine-induced bronchoconstriction in the anesthetized guinea pig by inhalational administration; assay type: in vivo; conditions: 0.001 μg/ml in stock solution aerosolized; inhalation
# Experimental: as §1, §2, §3
# Details of the procedure of this example are the same as those in preceding Example 2 with the exception that the test compounds were delivered in aerosol form into the trachea of the test aminals.
# [7] = tested on: bronchial smooth muscle; conditions: by inhalation or intravenously; cited from earlier work
# [8] = tested on: tracheal smooth muscle; conditions: isolated from a human; cited from earlier work
compound,measurement,setting,value
"CCCCC[C@H](O)/C=C/[C@H]1[C@H](O)CC(=O)[C@@H]1CCCCCCC(=O)O [PGE1, 11α,15α-dihydroxy-9-oxo-13-trans-prostenoic acid]",Relaxation (×80) (± S.E.),[1]; 0.001 μg/ml,0 mm
same,Relaxation (×80) (± S.E.),[1]; 0.010 μg/ml,24 (1) mm
same,Relaxation (×80) (± S.E.),[1]; 0.100 μg/ml,46 (19) mm
same,Relaxation (×80) (± S.E.),[1]; 1.000 μg/ml,75 (17) mm
same,Relaxation (×80) (± S.E.),[1]; 10.000 μg/ml,75 (65) mm
same,ED50,"[2]; Experiment No. 1, read-out: Dose I.V. inhibiting bronchoconstriction by 50% (ID50)",0.603 µg/kg
same,ED50,"[2]; Experiment No. 2, read-out: Dose I.V. inhibiting bronchoconstriction by 50% (ID50)",0.966 µg/kg
same,ED50,"[2]; Experiment No. 3, read-out: Dose I.V. inhibiting bronchoconstriction by 50% (ID50)",0.263 µg/kg
same,ED50,"[2]; Experiment No. 4, read-out: Dose I.V. inhibiting bronchoconstriction by 50% (ID50)",0.864 µg/kg
same,ED50,"[2]; Experiment No. 5, read-out: Dose I.V. inhibiting bronchoconstriction by 50% (ID50)",0.202 µg/kg
same,ED50,"[2]; mean of experiments 1-5, read-out: Dose I.V. inhibiting bronchoconstriction by 50% (ID50), Mean",0.579 µg/kg
same,relaxation of isolated tracheal smooth muscle,[3],relaxes tracheal smooth muscle
same,bronchodilation compared with isoprenaline,[4],superior to that induced by isoprenaline
same,Prolongation of Preconvulsion Time,"[5]; Expt. 1B, 0.50 μg/ml stock solution aerosolized, P <0.1",77 s
same,Prolongation of Preconvulsion Time,"[5]; Expt. 1B, 2.50 μg/ml stock solution aerosolized, P <0.001",225 s
same,Prolongation of Preconvulsion Time,"[5]; Expt. 1B, 5.00 μg/ml stock solution aerosolized, N.S. at P ≤ 0.05",139 s
same,Prolongation of Preconvulsion Time,"[5]; Expt. 1B, 10.00 μg/ml stock solution aerosolized, N.S. at P ≤ 0.05",267 s
same,Prolongation of Preconvulsion Time,"[5]; Expt. 2B, 0.10 μg/ml stock solution aerosolized, N.S. at P ≤ 0.05",495 s
same,Prolongation of Preconvulsion Time,"[5]; Expt. 2B, 0.50 μg/ml stock solution aerosolized, P <0.01",274 s
same,Prolongation of Preconvulsion Time,"[5]; Expt. 2B, 1.00 μg/ml stock solution aerosolized, P <0.01",294 s
same,Prolongation of Preconvulsion Time,"[5]; Expt. 2B, 5.00 μg/ml stock solution aerosolized, N.S. at P ≤ 0.05",664 s
same,Precent Inhibition of Histamine-Induced Bronchoconstriction,[6],6%
same,relaxation of bronchial smooth muscle in vivo,[7],relaxes bronchial smooth muscle in vivo
same,relaxation of isolated tracheal smooth muscle,[8],relaxes tracheal smooth muscle
